In patent US11225481B2 (Centre national de la recherche scientifique, priority 2015, dated 2022):
Where two headings read alike, the source gives them in different places.

Tests used:
[1] = target: T1, BRD4(BD1) (Homo sapiens, UniProt O60885); test: HTRF assay, disruption of bromodomain/histone peptide interaction; assay type: binding; details: for LE (Ligand Efficiency): LE = 1.4(−log(IC50)/N), BRD4(BD1)
T1 construct: a BRD4(BD1) synthetic gene that includes a TEV cleavage site was purchased from LifeTechnology; made in house
Method: (§1) HTRF assays were performed in white 384 Well Small Volume™ HiBase Polystyrene Microplates (Greiner) with a total working volume of 20 μL. Compounds were dispensed, with 200 nL per well (1% final DMSO), from a concentration stock of 1 mM in 100% DMSO and with serial DMSO dilutions, using a Mosquito Crystal pipetting robot platform (TTP labtech). The IC50 measurements were performed in triplicates (Table 2 and 3). All HTRF reagents were purchased from CisBio Bioassays and reconstituted according to the supplier protocols. For each assay 14.7 μL of mix 1 (protein+peptide) is added in the assay wells, containing previously dispensed inhibitors, according to the final concentration and buffer described in Table 4, using a Biomek NX MC pipetting robot (Beckman). Then, 5.1 μL of mix 2 (donnor+acceptor) is added. HTRF signals were measured, after a final incubation (overnight at room temperature), using a PHERAstar FS (BMG Labtech) with an excitation filter at 337 nm and fluorescence wavelength measurement at 620 and 665 nm, an integration delay of 60 μs and an integration time of 500 μs. Results were analyzed with a two-wavelengths signal ratio: [intensity (665 nm)/intensity (620 nm)]*10^4. Percentage of inhibition was calculated using the following equation: % inhibition=[(compound signal)−(min signal)]/[(max signal)−(min signal)]*100, where ‘max signal’ is the signal ratio with the compound vehicle alone (DMSO) and ‘min signal’ the signal ratio without peptide.
(§2) For Isothermal Titration Calorimetry (ITC) and crystallogenesis, BRD4(BD1) was produced and purified using a histidine tag affinity chromatography as described by Filipakopoulos et al.9 For these experiments, a pNIC28-BSA4 expression vector containing BRD4(BD1) and a Tobacco Etch Virus (TEV) protease cleavage site have kindly been provided by Stefan Knapp laboratory from the SGC at the University of Oxford. After size exclusion chromatography, the fractions presenting pure BRD4(BD1) after TEV cleavage of the histidine tag were pooled and concentrated to 25 mg/mL for crystallogenesis. For ITC assays, the protein was concentrated up to at 6 mg/mL and the DTT was removed using a buffer exchange column (PD10 from GE healthcare) equilibrated with 10 mM HEPES pH=7.5, 150 mM NaCl. For Homogeneous Time Resolved Fluorimetry (HTRF) experiments, a BRD4(BD1) synthetic gene that includes a TEV cleavage site was purchased from LifeTechnology in a pDONR transport vector before cloning into a pDESTTM15 expression vector for GST affinity purification. Protein production and purification was carried out using similar protocols and buffers as used for the His-BRD4(BD1) system. Purification was carried on GST affinity resin (Thermo Scientific) and reduced glutathione was used for protein release. GST-BRD4(BD1) was further purified by size exclusion chromatography on a Superdex 16/60 Hiload column (GE Healthcare) using 20 mM TRIS pH=8.0, 150 mM NaCl Buffer.

[2] = target: T2, BRD3(BD1) (Homo sapiens, UniProt Q15059); test: HTRF bromodomain selectivity profile; assay type: binding; details: Table 3 selectivity profile
T2 construct: purchased BPS Bioscience
Method: as §1, with “Compounds” for “HTRF assays were performed in white 384 Well Small Volume™ HiBase Polystyrene Microplates (Greiner) with a total working volume of 20 μL. Compounds”, “The IC50 measurements were performed in triplicates (Table 2 and 3).” left out, “[intensity (665 nm)/intensity (620 nm)]*10^4.” left out, “peptide. For IC50 measurements, values were normalized and fitted with Prism (GraphPad software) using the following equation: […] Selectivity profiles of bromodomain inhibitors were performed as described in HTRF screen section. […] HTRF detection reagents (EPIgeneous™ Binding Domain kits) were purchased from Cisbio Bioassays and used according to supplier's protocol. GST tagged bromodomain proteins were purchased from BPS Bioscience and histone peptide from Anaspec. [table]” for “peptide.”

[3] = target: T3, BRD3(BD2) (Homo sapiens, UniProt Q15059); test: HTRF bromodomain selectivity profile; assay type: binding; details: Table 3 selectivity profile
T3 construct: purchased BPS Bioscience
Method: as §1, with “Compounds” for “HTRF assays were performed in white 384 Well Small Volume™ HiBase Polystyrene Microplates (Greiner) with a total working volume of 20 μL. Compounds”, “The IC50 measurements were performed in triplicates (Table 2 and 3).” left out, “[intensity (665 nm)/intensity (620 nm)]*10^4.” left out, “peptide. For IC50 measurements, values were normalized and fitted with Prism (GraphPad software) using the following equation: […] Selectivity profiles of bromodomain inhibitors were performed as described in HTRF screen section. […] HTRF detection reagents (EPIgeneous™ Binding Domain kits) were purchased from Cisbio Bioassays and used according to supplier's protocol. GST tagged bromodomain proteins were purchased from BPS Bioscience and histone peptide from Anaspec. [table]” for “peptide.”

[4] = target: T4, BRD2(BD1) (Homo sapiens, UniProt P25440); test: HTRF bromodomain selectivity profile; assay type: binding; details: Table 3 selectivity profile
T4 construct: purchased BPS Bioscience
Method: as §1
(§3) Selectivity profiles of bromodomain inhibitors were performed as described in HTRF screen section. […] HTRF detection reagents (EPIgeneous™ Binding Domain kits) were purchased from Cisbio Bioassays and used according to supplier's protocol. GST tagged bromodomain proteins were purchased from BPS Bioscience and histone peptide from Anaspec.

[5] = target: T5, BRD2(BD2) (Homo sapiens, UniProt P25440); test: HTRF bromodomain selectivity profile; assay type: binding; details: Table 3 selectivity profile
T5 construct: purchased BPS Bioscience
Method: as §1, §3

[6] = target: T6, BRD4(BD2) (Homo sapiens, UniProt O60885); test: HTRF bromodomain selectivity profile; assay type: binding; details: Table 3 selectivity profile
T6 construct: purchased BPS Bioscience
Method: as §1, §3

[7] = target: T7, BRDT(BD1) (Homo sapiens, UniProt Q58F21); test: HTRF bromodomain selectivity profile; assay type: binding; details: Table 3 selectivity profile
T7 construct: purchased BPS Bioscience
Method: as §1, §3

[8] = target: T8, ATAD2 (Homo sapiens, UniProt Q6PL18); test: HTRF bromodomain selectivity profile, non-BET control; assay type: binding; details: non-BET family member bromodomain control
T8 construct: GST tagged bromodomain proteins were purchased from BPS Bioscience; purchased BPS Bioscience
T8 sequence (Q6PL18 980-1092 limits assumed): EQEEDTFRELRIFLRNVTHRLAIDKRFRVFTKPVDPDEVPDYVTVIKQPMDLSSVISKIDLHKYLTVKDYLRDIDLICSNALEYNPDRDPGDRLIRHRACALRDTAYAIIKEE
Method: as §1, §3

[9] = tested on: BET bromodomains; test: Selectivity profile across BET bromodomains (HTRF); assay type: binding; details: in words
Method: as §3

[10] = target: T1, BRD4(BD1); test: Isothermal Titration Calorimetry; assay type: binding
Excerpt: as §2
ITC was used to evaluate the thermodynamics parameters of the binding between BRD4(BD1) and the selected compounds, using ITC conditions previously described by Filippakopoulos et al.8 Purified BRD4(BD1) was extensively dialyzed in the ITC buffer containing 10 mM Hepes pH=7.5 and 150 mM NaCl. Compounds were diluted directly in the last protein dialysate prior to experiments. Titrations were carried out on a MicroCal ITC200 microcalorimeter (GE Healthcare, Piscataway, N.J.). Each experiment was designed using a titrant concentration (protein in the syringe) set 10 to 15 times the analyte concentration (compound in the cell generally between 10 and 35 μM) and using 13 injections at 35° C. A first small injection (generally 0.2 μL) was included in the titration protocol in order to remove air bubbles trapped in the syringe prior titration. Raw data were scaled after setting the zero to the titration saturation heat value. Integrated raw ITC data were fitted to a one site non-linear least squares fit model using the MicroCal Origin plugin as implemented in Origin 7 (Origin Lab). Finally, ΔG and TΔS values were calculated from the fitted ΔH and KA values using the equations ΔG=−R.T. ln KA and ΔG=ΔH−TΔS.

[11] = tested on: acute leukemia; details: patients, phase I acute leukemia study; cited from earlier work
[12] = tested on: BD2 domain of BRD2 and BRD3; details: cited from earlier work
[13] = HTRF, mean ± SD of three experiments, Table 2, read-out: IC50 μM, effect on BRD4(BD1) activity
[14] = HTRF, Table 1′, TABLE 2, read-out: BRD4(BD1) IC50
[15] = Table 3 selectivity profile, mean ± SD of three experiments, read-out: IC50 (μM) BRD4(BD1)

T3 sequence (Q15059 306-415 limits assumed): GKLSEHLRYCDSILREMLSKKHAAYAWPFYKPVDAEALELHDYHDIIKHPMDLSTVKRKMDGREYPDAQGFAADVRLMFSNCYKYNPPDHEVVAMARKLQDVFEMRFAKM
T4 sequence (P25440 74-180 limits assumed): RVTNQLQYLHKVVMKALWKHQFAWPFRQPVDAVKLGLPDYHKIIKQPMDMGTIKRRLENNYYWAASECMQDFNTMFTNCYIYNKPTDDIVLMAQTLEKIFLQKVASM
T5 sequence (P25440 344-453 limits assumed): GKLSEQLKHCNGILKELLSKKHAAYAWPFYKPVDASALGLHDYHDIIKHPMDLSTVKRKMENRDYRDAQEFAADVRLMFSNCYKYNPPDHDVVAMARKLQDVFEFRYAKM
T2 sequence (Q15059 34-140 limits assumed): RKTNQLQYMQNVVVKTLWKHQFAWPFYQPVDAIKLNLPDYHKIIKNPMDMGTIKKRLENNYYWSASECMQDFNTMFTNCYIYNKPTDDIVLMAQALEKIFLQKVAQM

IC50 [1, 13] [µM] | IC50 [2] [µM] | IC50 [3] [µM] | IC50 [4] [µM] | IC50 [5] [µM] | IC50 [6] [µM] | IC50 [7] [µM] | fold decrease in potency as compared to 7a ([1]; HTRF IC50 BRD4(BD1)) [fold] | SMILES | IC50 [1, 14] [µM] | LE (Ligand Efficiency) [1] | IC50 [1, 15] [µM] | IC50 [8] [µM] | selectivity profile among BET bromodomains [9] | fold increased potency (7a vs 6a) ([1]; HTRF IC50 BRD4(BD1)) [fold] | enthalpy change ([10]; ITC, BRD4(BD1)) [kcal/mol] | Kd ([10]; Isothermal Titration Calorimetry) [µM] | clinical response [11] | bromodomain binding preference [12]
9 | 14 | 4 | > 100 | 7 | 5 | 27 |  | Cn1cnc2c1c(=O)[nH]c(=O)n2Cc1ccc(Cl)cc1 [Compound 4b] |  |  |  |  |  |  |  |  |  | 
26.4 | 31.7 ± 1.1 |  | 30 ± 0.9 |  |  |  | 10 | CCn1c(CSc2n[nH]c(N)n2)nc2c1c(=O)[nH]c(=O)n2Cc1ccc(Cl)cc1 [Compound 22a, 8-(5-Amino-1H-[1,2,4]triazol-3-ylsulfanylmethyl)-3-(4-chlorobenzyl)-7-ethyl-3,7-dihydro-purine-2,6-dione] | 26.4 | 0.17 | 26.4 ± 0.7 |  | shift of selectivity towards BET-BD1 domains |  |  |  |  | 
12.6 | 40.7 ± 2.2 | 23.9 ± 1.4 | 30.1 ± 1.3 | > 100 | > 100 | 65.3 ± 8.1 |  | CCn1c(CSc2nc3nc(C)cc(C)n3n2)nc2c1c(=O)[nH]c(=O)n2Cc1ccc(Cl)cc1 [Compound 25a] |  |  |  | > 100 |  |  |  |  |  | 
7.9 | 43.5 ± 7.1 | 2.1 ± 0.5 | 31.9 ± 0.5 | 9.5 ± 0.5 | > 100 | 42.5 ± 3.9 |  | CCc1cc(CC)n2nc(SCc3nc4c(c(=O)[nH]c(=O)n4Cc4ccc(Cl)cc4)n3CC)nc2n1 [Compound 26a] |  |  |  | 56.4 ± 7.9 |  |  |  |  |  | 
 |  |  |  |  |  |  |  | Cc1sc2c(c1C)C(c1ccc(Cl)cc1)=N[C@@H](CC(=O)Nc1ccc(O)cc1)c1nnc(C)n1-2 [OTX015, (6S)-4-(4-chlorophenyl)-N-(4-hydroxyphenyl)-2,3,9-trimethyl-6H-thieno[3,2-f][1,2,4]triazolo[4,3-a][1,4]diazepine-6-acetamide] |  |  |  |  |  |  |  |  | induced remissions, including complete remission in two patients with refractory disease | 
 |  |  |  |  |  |  |  | COc1cc(OC)c2c(=O)[nH]c(-c3cc(C)c(OCCO)c(C)c3)nc2c1 [RVX-208, 2-[4-(2-hydroxyethoxy)-3,5-dimethylphenyl]-5,7-dimethoxy-4(3H)-quinazolinone] |  |  |  |  |  |  |  |  |  | binds preferentially to the BD2 domain of BRD2 and BRD3

SMILES | IC50 [1, 13] [µM] | IC50 [2] [µM] | IC50 [3] [µM] | IC50 [4] [µM] | IC50 [5] [µM] | IC50 [6] [µM] | IC50 [7] [µM] | fold decrease in potency as compared to 7a ([1]; HTRF IC50 BRD4(BD1)) [fold] | IC50 [1, 14] [µM] | LE (Ligand Efficiency) [1] | IC50 [1, 15] [µM] | IC50 [8] [µM] | selectivity profile among BET bromodomains [9] | fold increased potency (7a vs 6a) ([1]; HTRF IC50 BRD4(BD1)) [fold] | enthalpy change ([10]; ITC, BRD4(BD1)) [kcal/mol] | Kd ([10]; Isothermal Titration Calorimetry) [µM] | clinical response [11] | bromodomain binding preference [12]
CCCCn1c(=O)[nH]c(=O)c2c1ncn2CC [Compound 6a, 3-Butyl-7-ethylxanthine] | 13 | 4.8 ± 0.3 | 5.8 ± 0.2 | 18.8 ± 0.7 | 6.6 ± 0.3 | 8.1 ± 0.3 | 7.9 ± 0.4 |  | 13 ± 0.3 | 0.40 | 13 ± 0.3 | > 100 | pan-BET inhibition profile |  |  |  |  | 
CCn1cnc2c1c(=O)[nH]c(=O)n2Cc1ccc(Cl)cc1 [Compound 7a] | 2.6 | 1.8 ± 1.1 | 1.8 ± 0.2 | 4.7 ± 0.1 | 1.6 ± 0.2 | 1.9 ± 0.1 | 2.3 ± 0.2 |  | 2.6 | 0.37 | 2.6 ± 0.1 | > 100 | pan-BET inhibition profile | 2 | -6.3 | 1.8 |  | 
